Measured values: PubChem BioAssay AID1963836 (Molecular Pharmacology Branch, DTP, NCI, 2024)

Test system: 857933-349-R-J2-PDC complex spheroid viability
Assay: Anticancer human tumor 857933-349-R-J2-PDC patient-derived colon adenocarcinoma cell line growth inhibition [POLQ]
Conditions: for IC50: curve of first compound; for viability, T/C: stronger effect = lower value
Description: Multicellular complex tumor spheroid response to Polymerase (POL) inhibitors (novobiocin, ART-558, RP6685) in combination with a variety of drugs and investigational agents in selected tumor cell lines
The POL inhibitors (novobiocin, ART-558, and RP6685) were evaluated both individually and in combination with standard of care and investigational anticancer small molecules within a complex spheroid model of solid tumors. . Complex spheroids include a stromal component modeled by human endothelial cells (HUVEC) and fibroblasts modeled by human mesenchymal stem cells (MSCs). The concentration ranges selected for each drug and investigational agent were based upon clinically achievable concentrations if the clinical Cmax of the agent was known.
Compounds. The drugs and investigational agents: novobiocin (NSC847541), ART-558 (NSC835418), RP-6685 (NSC848927), peposertib (NSC802822), ceralasertib (NSC780249), elimusertib (NSC800525), camonsertib (NSC841442), AZD-1390 (NSC803789), olaparib (NSC753686), talazoparib (NSC767125), rucaparib (NSC756644), sotorasib (NSC818433), MRTX-1133 (NSC836407), SN-38 (NSC673596), topotecan (NSC609699), epotoside (NSC141540), doxorubicin (NSC123127), gemcitabine (NSC613327), 5-fluorouracil (NSC19893), paclitaxel (NSC125973), vemurafenib (NSC761431), MSA-2 (NSC828583), SN-011 (NSC837082), adavosertib (NSC754352), prexasertib (NSC758257), carboplatin (NSC241240) and oxaliplatin (NSC266046), were obtained from the National Cancer Institute (NCI) Developmental Therapeutics Program Chemical Repository (21). The FDA-approved anticancer drug set is available from the Developmental Therapeutics Program at https://dtp.cancer.gov/organization/dscb/obtaining/. […] The stock solutions were prepared in dimethyl sulfoxide (DMSO, Sigma-Aldrich, St. Louis, MO, cat. D2650), except for the platinum compounds which were prepared in saline (Quality Biological, Gaithersburg, MD, cat. 114-055-101), at 800-fold the tested concentration and stored at -70 degrees C prior to their use. All drugs and investigational agents were tested over a range starting from a high concentration at or near the clinical Cmax and decreasing in half-log increments. If the clinical Cmax for an agent had not been determined, the highest concentration tested was 10 microM, except for SN-38, which was tested at a high concentration of 1 microM.
Cell Culture. All cells were maintained in an incubator at 37 degrees C and 5% CO2 with 95% humidity. The PDC lines were cultured according to standard operating procedures established by the NCI PDMR (https://pdmr.cancer.gov). Table 3 of the manuscript, lists the cell lines along with the number of the three cell types plated to form the mct-spheroids and media for tumor cell growth. After thawing, all PDC lines, except 997537-175-T-J1-PDC and 415267-285-R-J2-PDC, were cultured in Matrigel-coated flasks prepared with a working solution of 1X Ham's F-12 nutrient mix, without supplementation (Thermo Fisher Scientific, cat. 11765054), 100 U/mL penicillin-streptomycin (Thermo Fisher Scientific, cat. 15140122), and 2.5% Matrigel (Corning Inc., Corning, NY, cat. 354248) for the first three passages. The two PDC lines 997537-175-T-J1-PDC and 415267-285-R-J2-PDC were cultured on uncoated flasks. The 857933-349-R-J2-PDC line was cultured in 6C/Colon 1B media containing advanced DMEM/F-12 (Thermo Fisher Scientific, cat. 12634028), 10 mM HEPES (Thermo Fisher Scientific, cat. 15630080), 1X GlutaMAX supplement (Thermo Fisher Scientific, cat. 35050061), 0.1 mg/mL primocin (InvivoGen, San Diego, CA, cat. ant-pm-2), 10% defined fetal bovine serum, heat inactivated (HyClone Laboratories Inc., Logan, UT, cat. SH30070.03HI), 50% L-WRN conditioned media (ATCC, cat. CRL-3276), 1.25 mM N-Acetyl-L-cysteine (Sigma-Aldrich, cat. A9165), 10 mM nicotinamide (Sigma-Aldrich, cat. N0636), 1X B-27 supplement (Thermo Fisher Scientific, cat. 17504044), 1X N-2 supplement (Thermo Fisher Scientific, cat. […]
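Also: spheroids exposed to compounds for seven days before readout.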

C=CCn1c(=O)c2cnc(Nc3ccc(N4CCN(C)CC4)cc3)nc2n1-c1cccc(C(C)(C)O)n1 + Nc1ccc(C#CCN(C(=O)Cc2ncc(C(F)(F)F)cc2C(F)(F)F)c2ccc(F)cc2)nn1
IC50 (second compound 0.0316 µM): > 1000 nM | IC50 (second compound 0.1 µM): > 1000 nM | IC50 (second compound 0.316 µM): > 1000 nM | IC50 (second compound 1 µM): > 1000 nM | IC50 (second compound 3.16 µM): > 1000 nM | IC50 (second compound 10 µM): > 1000 nM | viability, T/C (second compound 0.0316 µM, first compound 0.00316 µM): 105% | viability, T/C (second compound 0.0316 µM, first compound 0.01 µM): 98.7% | viability, T/C (second compound 0.0316 µM, first compound 0.0316 µM): 91.4% | viability, T/C (second compound 0.0316 µM, first compound 0.1 µM): 105% | viability, T/C (second compound 0.0316 µM, first compound 0.316 µM): 88.8% | viability, T/C (second compound 0.0316 µM, first compound 1 µM): 74.7% | viability, T/C (second compound 0.1 µM, first compound 0.00316 µM): 105% | viability, T/C (second compound 0.1 µM, first compound 0.01 µM): 122% | viability, T/C (second compound 0.1 µM, first compound 0.0316 µM): 95.4% | viability, T/C (second compound 0.1 µM, first compound 0.1 µM): 91.9% | viability, T/C (second compound 0.1 µM, first compound 0.316 µM): 88.1% | viability, T/C (second compound 0.1 µM, first compound 1 µM): 73.8% | viability, T/C (second compound 0.316 µM, first compound 0.00316 µM): 60.7% | viability, T/C (second compound 0.316 µM, first compound 0.01 µM): 95.8% | viability, T/C (second compound 0.316 µM, first compound 0.0316 µM): 94% | viability, T/C (second compound 0.316 µM, first compound 0.1 µM): 88.7% | viability, T/C (second compound 0.316 µM, first compound 0.316 µM): 103% | viability, T/C (second compound 0.316 µM, first compound 1 µM): 75.4% | viability, T/C (second compound 1 µM, first compound 0.00316 µM): 96.5% | viability, T/C (second compound 1 µM, first compound 0.01 µM): 93.6% | viability, T/C (second compound 1 µM, first compound 0.0316 µM): 90.6% | viability, T/C (second compound 1 µM, first compound 0.1 µM): 106% | viability, T/C (second compound 1 µM, first compound 0.316 µM): 102% | viability, T/C (second compound 1 µM, first compound 1 µM): 74.4% | viability, T/C (second compound 3.16 µM, first compound 0.00316 µM): 102% | viability, T/C (second compound 3.16 µM, first compound 0.01 µM): 93.2% | viability, T/C (second compound 3.16 µM, first compound 0.0316 µM): 74.9% | viability, T/C (second compound 3.16 µM, first compound 0.1 µM): 101% | viability, T/C (second compound 3.16 µM, first compound 0.316 µM): 68.8% | viability, T/C (second compound 3.16 µM, first compound 1 µM): 75.9% | viability, T/C (second compound 10 µM, first compound 0.00316 µM): 113% | viability, T/C (second compound 10 µM, first compound 0.01 µM): 106% | viability, T/C (second compound 10 µM, first compound 0.0316 µM): 94% | viability, T/C (second compound 10 µM, first compound 0.1 µM): 78.7% | viability, T/C (second compound 10 µM, first compound 0.316 µM): 85.9% | viability, T/C (second compound 10 µM, first compound 1 µM): 66.5%
